Measurements reported in paper PMC6434189, “Peperomin E and its orally bioavailable analog induce oxidative stress-mediated apoptosis of acute myeloid leukemia progenitor cells by targeting thioredoxin reductase” (Redox Biology, 2019).
“Also recorded” adds a separate entry of the source.

Columns and labels:
[1] = test system: CD34+ NBM cells and hBMSCs; assay: CCK-8 cell viability assay on normal CD34+ NBM cells and hBMSCs; format: cell-based, human; conditions: 48 h, CCK-8
Protocol: (§1) The mononuclear cells were further enriched for CD34 positive cells using the MACS CD34 MicroBead kit following the manufacturer's protocol. Enriched CD34 cell-purity was measured by flow cytometry-based quantification of cells stained using an anti-CD34-FITC antigen. Isolated CD34^+ cells were pre-incubated in the IMDM-based serum-free media for 1 h before the addition of drugs. PepE was dissolved in DMSO to make a 100 mM stock solution and stored in aliquots at – 20 °C. The 100 mM stock solution was diluted with DMSO to 10 mM and then diluted with PBS to 1 mM before treating the cells at the indicated concentrations. DMAPE and Ara-C were diluted in PBS to 1 mM concentration before use.
(§2) Unless otherwise mentioned, 2 × 10^4 cells were seeded at 96-well plates (Corning, New York, USA) in the IMDM-based serum-free media for 1 h. Then, the cells were incubated with different concentrations of PepE and DMAPE at 37 °C in a 5% CO2 incubator for 48 h. At the end of the treatment, 10 μL CCK-8 solution was added to each well and incubated for an additional 2 h at 37 °C, and the absorbance at 450 nm was measured with a microplate reader (Thermo Scientific, Multiskan GO, Finland). Inhibition ratio (%) was calculated as [(absorbance of control − absorbance of the test sample)/absorbance of control] x 100%.

primary CD34+ AML cells = assay: CCK-8 cell viability assay on primary CD34+ AML cells; format: cell-based, human; conditions: 48 h, CCK-8
Protocol: as §1, §2

KG-1a CD34+ cells = assay: KG-1a-Luc CD34+ xenograft in NOD/SCID mice, bioluminescence; format: in vivo; conditions: 50 mg/kg i.g. daily, 5 weeks
Protocol: Six-week-old female NOD-SCID mice (obtained from the model animal research center of Nanjing University, Nanjing, China) were acclimated for 1 week and housed in groups of five. All animal studies were conducted under the guidelines approved by the Animal Care and Use Committee of the Nanjing University of Chinese Medicine (Nanjing, China). The mice were sublethally irradiated with 2.7 Gy before transplantation.
KG-1a cells tagged with a luciferase reporter gene (KG-1a-Luc) were obtained from Cobioer biotechnology Inc. (Nanjing, Jiangsu, China) and cultured in 90% IMDM supplemented with 10% FBS, 0.05 mM 2-Mercaptoethanol, and 1 μg/mL Puromycin, and grown at 37 °C in a 5% CO2 humidified incubator. CD34 positive cells were enriched (following the 2.3 method) and injected via the tail vein in a final volume of 0.2 mL PBS with 0.5% FBS. For analyzing the luciferase signal, 5 × 10^6 cells KG-1a-Luc cells were used for each recipient animal. Seven days after transplantation, mice with KG-1a-Luc implants were subjected to bioluminescent analysis based on the luciferase signal. Briefly, mice received D-luciferin phosphate solution (100 mg/kg) intravenously 10 min prior to imaging. They were then anesthetized with isoflurane inhalation and imaged using a Xenogen IVIS scanner (PerkinElmer, Waltham, MA, USA). The next day, mice showing successful implantations were randomly divided into the control, DMAPE low dose, DMAPE high dose, and Ara-C treatment groups (n = 5 in each group), which received daily i. g. saline buffer, DMAPE phosphate salt 25 mg/kg, DMAPE phosphate salt 50 mg/kg and Ara-C (50 mg/kg), respectively. The growth of KG-1a-Luc cells was monitored every week by their luciferase signal. Five weeks after the implantation, all mice were sacrificed and their livers, kidneys, and bone marrow were excised for ex vivo bioluminescent imaging. The bioluminescent signal intensity was all quantified using the Living Image software (version 4.2, Carliper Life Science, Inc., Hopkinton, MA, USA) and is presented as photons/second/cm^2/sr (sr denotes steradian).

Sec residue in TrxR1 = biological target: T1, Sec residue in TrxR1 (Homo sapiens, UniProt Q16881); assay: BIAM labeling assay; format: biochemical; conditions: pH 6.5; PepE 1, 5, 10 μM; DNCB 5 μM
T1 construct: purchased Abcam ab204206
T1 sequence (Q16881 1-499 isoform Q16881-5): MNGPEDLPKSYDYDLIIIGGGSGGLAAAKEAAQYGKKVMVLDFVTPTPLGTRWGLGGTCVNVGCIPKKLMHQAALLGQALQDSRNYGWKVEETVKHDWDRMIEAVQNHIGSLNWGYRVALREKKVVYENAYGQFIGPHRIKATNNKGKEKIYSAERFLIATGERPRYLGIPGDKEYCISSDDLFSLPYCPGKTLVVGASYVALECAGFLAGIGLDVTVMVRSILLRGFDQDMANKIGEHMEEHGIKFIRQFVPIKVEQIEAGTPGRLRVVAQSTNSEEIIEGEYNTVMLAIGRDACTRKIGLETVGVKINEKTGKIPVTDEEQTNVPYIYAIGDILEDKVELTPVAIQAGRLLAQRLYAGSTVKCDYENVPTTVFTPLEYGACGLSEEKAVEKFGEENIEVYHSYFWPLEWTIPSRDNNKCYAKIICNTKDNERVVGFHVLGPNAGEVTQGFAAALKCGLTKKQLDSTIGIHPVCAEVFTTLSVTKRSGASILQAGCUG
Protocol: To further assess whether the Sec residue in TrxR1 was the modified site of PepE. The BIAM labeling assay was performed according to previous report. Briefly, 100 μM BIAM stock solution in 100 mM Tris-HCl, 1 mM EDTA buffer (pH = 6.5) was freshly prepared before each test. The TrxR1 protein (1 μM) was incubated with different concentrations (1, 5, 10 μM) of PepE or 5 μM of DNCB (positive control) and DMSO (negative control) in 50 mM Tris-HCl, 1 mM EDTA buffer (pH = 7.5) and 400 μM NADPH at 37 °C. After incubation, 4 μL of the reaction mixture was withdrawn and added mixed with 20 μM of BIAM solution in 100 mM Tris-HCl, 1 mM EDTA assay buffer (pH = 6.5) for 30 min at 37 °C to allow selective alkylation of free Sec residues. The reaction was stopped by adding the IAA solution (final concentration 50 mM). The samples were then denatured in SDS buffer, boiled and subjected to SDS-PAGE and western-blotting on a 7.5% gel, and the separated proteins were transferred to nitrocellulose membrane. The enzymes labeled with BIAM were detected with HRP-conjugated streptavidin and enhanced chemiluminescence detection. The bands were analyzed using Gel-pro 32 software.

NADPH-reduced TrxR1 = biological target: T2, NADPH-reduced TrxR1 (Homo sapiens, UniProt Q16881); assay: Bio-layer interferometry (BLI) binding assay, TrxR1; conditions: NADPH-reduced TrxR1 0.9 μM, 25 °C
T2 construct: purchased Abcam ab204206
T2 sequence (Q16881 1-499 isoform Q16881-5): T1 sequence (Q16881 1-499 isoform Q16881-5)
Protocol: The binding kinetics of PepE or PepA to purified recombinant proteins were determined using BLI on an Octet RED 96 system (ForteBio, Shanghai, China) following the manufacturer's protocol. All interaction analyses were performed at 25 °C in PBS with 0.2% DMSO. Purified recombinant proteins (0.9 μM, the TrxR1 full length and TrxR1 protein fragment were pre-reduced by 400 μM of NADPH before test) were pre-labeled with biotin using […] (Abcam) following the manufacturer's instruction. Loading of the Dip and Read Super Streptavidin (SSA) Biosensors (ForteBio) were conducted by exposing biotinylated proteins to biosensor tips for 2 h. The 96-well microplates used in the Octet were filled with 200 μL sample or buffer per well and agitated at 1000 rpm. The loaded biosensors were washed in buffer for 600 s and transferred to wells containing PepE at concentrations of 0.625, 1.25, 2.5, 5, and 10 μM or PepA at concentrations of 1.25, 2.5, 5, 10 and 20 μM, respectively, in the buffer. […] Reference measurements were conducted using the buffer instead of PepE (or PepA). A parallel set of SA unloaded biosensors was prepared to act as a control. The sample-sensorgrams were corrected by subtracting the double reference curve. Kinetic parameters (Kon and Kdis) and affinity (KD) were determined from a global fit to a 1:1 binding model of the data between proteins and PepE using Octet software (ForteBio).

TrxR1 = conditions: read-out: TrxR1 inhibition IC50; cited from earlier work

For `Nc1ccn([C@@H]2O[C@H](CO)[C@@H](O)[C@@H]2O)c(=O)n1` [Ara-C, Cytarabine, reference compound], the “toxicity on NBM and hBMSC cells in side-by-side comparison” value [1] was “more toxic than PepE and DMAPE”, the “toxicity against AML progenitor cells” value (primary CD34+ AML cells) was “no apparent toxicity” and the “in vivo efficacy against KG-1a CD34+ cells” value (KG-1a CD34+ cells) was “not obvious; also recorded: not significant”.
For `O=[N+]([O-])c1ccc(Cl)c([N+](=O)[O-])c1` [DNCB, 1-chloro-2,4-dinitrobenzene, reference compound], the “BIAM alkylation of Sec residue of TrxR1” value (Sec residue in TrxR1) was “significantly block”.
For `COc1cc(C(c2cc(OC)c3c(c2)OCO3)[C@@H]2COC(=O)[C@H]2C)cc2c1OCO2` [PepA, Peperomin A, reference compound], the Kd (NADPH-reduced TrxR1) was 111000 nM.
In the case of `C=C1C(=O)O[C@H]2[C@H]1CC/C(C)=C/CC[C@@]1(C)O[C@@H]21` [parthenolide, Parthenolide], the IC50 (TrxR1) is listed as about 3000 nM.
In the case of `CC(C)=CC[C@@H](O)C1=CC(=O)c2c(O)ccc(O)c2C1=O` [shikonin], the IC50 (TrxR1) is listed as about 1600 nM.
